Data published in patent publication US20230124862A1, “BISMUTH THIOL COMPOUNDS AND COMPOSITIONS AND METHODS OF TREATING MICROBIAL CO-INFECTIONS” (Microbion Corporation, priority 2020, published 2023).
Values after ≈ are worked out from the molar mass of the structure shown. Read-outs that look alike come from different tables or passages of the source.

What was measured:
[1] = tested on: DNA synthesis in E. coli ATCC 25922; conditions: 16X the MIC
P. aeruginosa [2] = experiment: MIC testing of CF isolates and control strain
M. abscessus complex = experiment: MIC testing of CF isolates; type: cell-based, Mycobacterium abscessus
[3] = tested on: Burkholderia cepacia complex; type: cell-based, Burkholderia spp.; conditions: initial MIC testing
P. aeruginosa [4] = conditions: P. aeruginosa isolate 103; CLSI QC range in parenthesis; cited from earlier work
P. aeruginosa [5] = conditions: P. aeruginosa isolate 103; CLSI QC range in parenthesis; cited from earlier work; remark: listed apart in the source
B. cepacia = experiment: MIC testing of CF isolates; type: cell-based, Burkholderia cepacia; conditions: B. cepacia (B. cepacia complex) (BC17)
Acinetobacter baumannii = experiment: Broth microdilution MIC (Example 12); type: cell-based
B. multivorans = experiment: MIC testing of CF isolates; type: cell-based, Burkholderia multivorans; conditions: B. multivorans (B. cepacia complex) (BC5b)
Pseudomonas aeruginosa [6] = experiment: Broth microdilution MIC (Example 12); type: cell-based
B. cenocepacia = experiment: MIC testing of CF isolates; type: cell-based, Burkholderia cenocepacia
[7] = tested on: Burkholderia cepacia complex; experiment: Checkerboard FIC/FICI assay; type: cell-based, Burkholderia spp.; conditions: during FIC testing
S. maltophilia = experiment: MIC testing of CF isolates; type: cell-based, Stenotrophomonas maltophilia; conditions: S. maltophilia (SM21)
Pseudomonas aeruginosa [8] = conditions: P. aeruginosa ATCC 27853; CLSI established QC range; cited from earlier work
Klebsiella pneumoniae = experiment: Broth microdilution MIC (Example 12); type: cell-based
Achromobacter spp. = experiment: MIC testing of CF isolates; type: cell-based
Escherichia coli = experiment: Broth microdilution MIC (Example 12); type: cell-based
[9] = tested on: protein synthesis in E. coli ATCC 25922; conditions: 8X the MIC
E. coli ATCC 25922 = experiment: Broth microdilution MIC (Example 16); conditions: Escherichia coli

In the case of `O=C(O)c1cn(C2CC2)c2cc(N3CCNCC3)c(F)cc2c1=O` [ciprofloxacin], the “inhibition of DNA synthesis” value [1] is reported as 89.6%.
In the case of `NCC[C@H](O)C(=O)N[C@@H]1C[C@H](N)[C@@H](O[C@H]2O[C@H](CN)[C@@H](O)[C@H](O)[C@H]2O)[C@H](O)[C@H]1O[C@H]1O[C@H](CO)[C@@H](O)[C@H](N)[C@H]1O` [AMK], the MIC (P. aeruginosa [2]) is reported as >64 µg/mL, the MIC (P. aeruginosa [2]; P. aeruginosa (AGR1), CF isolate) is reported as 16 µg/mL (≈ 27.3 µM) and the MIC (M. abscessus complex; M. abscessus/massiliense complex (AMT0068-40)) is reported as 32^2 μg/mL. The MIC (M. abscessus complex; M. abscessus/massiliense complex (AMT0119-7)) was 32^2 μg/mL, the MIC (M. abscessus complex; M. abscessus/massiliense complex (AMT0493-2), AMK R) was >64^2 μg/mL and the MIC (M. abscessus complex; M. abscessus/massiliense complex (AMT01130-8)) was 16^2 μg/mL. For the same compound, the MIC (M. abscessus complex; M. abscessus/massiliense complex (AMT1539)) was 32^2 μg/mL, the MIC (M. abscessus complex; M. abscessus/massiliense complex (ATCL119977), Macrolide R (inducible)) was 8^2 μg/mL and the MIC ([3]; B. cenocepacia isolate 0548 (CIP-R)) was 256 µg/mL (≈ 437 µM). For the same compound, the MIC ([3]; B. cenocepacia isolate 1631) was 256 µg/mL (≈ 437 µM), the MIC ([3]; B. cenocepacia isolate 1783) was 256 µg/mL (≈ 437 µM) and the MIC ([3]; B. cenocepacia isolate 8555) was 256 µg/mL (≈ 437 µM). The MIC ([3]; B. cepacia isolate 0546) was 64 µg/mL (≈ 109 µM), the MIC ([3]; B. cepacia isolate 1793) was 64 µg/mL (≈ 109 µM) and the MIC ([3]; B. cepacia isolate 9040) was 8 µg/mL (≈ 13.7 µM). For the same compound, the MIC ([3]; B. multivorans isolate 5665 (CIP-I)) was 256 µg/mL (≈ 437 µM), the MIC ([3]; B. multivorans isolate 8952 (CIP-I)) was 64 µg/mL (≈ 109 µM) and the “CLSI QC range of MIC” value (P. aeruginosa [4]) was “(1-4) μg/mL”. The “CLSI QC range of MIC” value (P. aeruginosa [5]) was “(1-4) μg/mL”, the MIC (B. cepacia) was >64 µg/mL and the MIC (Acinetobacter baumannii; A. baumannii CDC 273, ESBL/OXA) was >64 µg/mL. The MIC (Acinetobacter baumannii; A. baumannii CDC 274, ESBL/OXA) was 16 µg/mL (≈ 27.3 µM), the MIC (Acinetobacter baumannii; A. baumannii CDC 275, ESBL/OXA) was >64 µg/mL and the MIC (Acinetobacter baumannii; A. baumannii CDC 277, ESBL/OXA) was 16 µg/mL (≈ 27.3 µM). For the same compound, the MIC (Acinetobacter baumannii; A. baumannii CDC 284, ESBL/OXA) was […], the MIC (Acinetobacter baumannii; A. baumannii CDC 307, OXA) was >64 µg/mL and the MIC (Acinetobacter baumannii; A. baumannii CDC 308, ESBL/OXA) was >64 µg/mL. For the same compound, the MIC (Acinetobacter baumannii; A. baumannii CDC 311, OXA) was >64 µg/mL, the MIC (Acinetobacter baumannii; A. baumannii CDC 312, OXA) was 1 µg/mL (≈ 1.71 µM) and the MIC (Acinetobacter baumannii; A. baumannii CDC 313, ESBL/OXA) was 4 µg/mL (≈ 6.83 µM). The MIC (Acinetobacter baumannii; A. baumannii NCTC 13304, OXA) was 0.5 µg/mL (≈ 0.854 µM), the MIC (B. multivorans) was >64 µg/mL and the MIC (Pseudomonas aeruginosa [6]; P. aeruginosa ATCC 27853, ATCC QC organism (Table 102)) was 2 µg/mL (≈ 3.42 µM). The MIC (Pseudomonas aeruginosa [6]; P. aeruginosa CDC 230, VIM/OXA) was >64 µg/mL, the MIC (Pseudomonas aeruginosa [6]; P. aeruginosa CDC 231, KPC/OXA) was 8 µg/mL (≈ 13.7 µM) and the MIC (Pseudomonas aeruginosa [6]; P. aeruginosa CDC 241, IMP/OXA) was […]. The MIC (Pseudomonas aeruginosa [6]; P. aeruginosa CDC 246, NDM/OXA) was >64 µg/mL, the MIC (Pseudomonas aeruginosa [6]; P. aeruginosa CDC 250, NDM/OXA) was >64 µg/mL and the MIC (Pseudomonas aeruginosa [6]; P. aeruginosa CDC 356, KPC) was 2 µg/mL (≈ 3.42 µM). The MIC (Pseudomonas aeruginosa [6]; P. aeruginosa CDC 439, IMP) was >64 µg/mL, the MIC (Pseudomonas aeruginosa [6]; P. aeruginosa CDC 444, VIM) was >64 µg/mL and the MIC (Pseudomonas aeruginosa [6]; P. aeruginosa CDC 457, VIM) was 2 µg/mL (≈ 3.42 µM). For the same compound, the MIC (Pseudomonas aeruginosa [6]; P. aeruginosa CDC 516, KPC/AmpC) was 2 µg/mL (≈ 3.42 µM), the MIC (Pseudomonas aeruginosa [6]; P. aeruginosa CDC 518, KPC/AmpC) was 16 µg/mL (≈ 27.3 µM) and the MIC (B. cenocepacia; B. cenocepacia (B. cepacia complex) (AU197)) was >64 µg/mL. The MIC (B. cenocepacia; B. cenocepacia (B. cepacia complex) (BC15)) was >64 µg/mL, the MIC ([7]; B. cepacia isolate 0546) was […] and the MIC ([7]; B. cepacia isolate 1793) was […]. For the same compound, the MIC (S. maltophilia) was 64 µg/mL (≈ 109 µM), the “QC range of MIC” value (Pseudomonas aeruginosa [8]) was “(1-4) μg/mL” and the MIC (Klebsiella pneumoniae; K. pneumoniae ATCC BAA-1705, ATCC QC organism (Table 102)) was […]. The MIC (Klebsiella pneumoniae; K. pneumoniae ATCC BAA-1705, ESBL/KPC) was […], the MIC (Klebsiella pneumoniae; K. pneumoniae CDC 112, KPC) was […] and the MIC (Klebsiella pneumoniae; K. pneumoniae CDC 113, ESBL/KPC) was […]. The MIC (Klebsiella pneumoniae; K. pneumoniae CDC 115, ESBL/KPC) was […], the MIC (Klebsiella pneumoniae; K. pneumoniae CDC 120, ESBL/KPC) was […] and the MIC (Klebsiella pneumoniae; K. pneumoniae CDC 126, ESBL/KPC) was […]. For the same compound, the MIC (Klebsiella pneumoniae; K. pneumoniae CDC 129, ESBL/KPC) was […], the MIC (Klebsiella pneumoniae; K. pneumoniae CDC 135, ESBL/VIM) was […] and the MIC (Klebsiella pneumoniae; K. pneumoniae CDC 138, ESBL/NDM) was […]. The MIC (Klebsiella pneumoniae; K. pneumoniae CDC 158, ESBL/NDM/OXA) was […], the MIC (Klebsiella pneumoniae; K. pneumoniae MMX 9029, ESBL) was […] and the MIC (Achromobacter spp.; A. xylosoxidans (AX4)) was >64 µg/mL. For the same compound, the MIC (Achromobacter spp.; Achromobacter spp. (AX1)) was 64 µg/mL (≈ 109 µM), the MIC (Escherichia coli; E. coli ATCC 25922, ATCC QC organism (Table 102)) was 1 µg/mL (≈ 1.71 µM) and the MIC (Escherichia coli; E. coli ATCC 35218, ATCC QC organism (Table 102)) was 1 µg/mL (≈ 1.71 µM). The MIC (Escherichia coli; E. coli ATCC 35218, ESBL) was 1 µg/mL (≈ 1.71 µM), the MIC (Escherichia coli; E. coli ATCC BAA-2471, NDM) was 64 µg/mL (≈ 109 µM) and the MIC (Escherichia coli; E. coli CDC 114, ESBL/KPC) was 1 µg/mL (≈ 1.71 µM). The MIC (Escherichia coli; E. coli CDC 118, ESBL/NDM) was >64 µg/mL, the MIC (Escherichia coli; E. coli CDC 435, NDM) was >64 µg/mL and the MIC (Escherichia coli; E. coli CDC 451, KPC) was 4 µg/mL (≈ 6.83 µM). For the same compound, the MIC (Escherichia coli; E. coli CDC 503, ESBL/NDM) was >64 µg/mL, the MIC (Escherichia coli; E. coli MMX 5745, KPC) was 0.5 µg/mL (≈ 0.854 µM) and the MIC (Escherichia coli; E. coli MMX 5755, ESBL) was 16 µg/mL (≈ 27.3 µM). The MIC (Escherichia coli; E. coli MMX 5756, ESBL) was 64 µg/mL (≈ 109 µM) and the MIC (Escherichia coli; E. coli MMX 5758, ESBL) was 1 µg/mL (≈ 1.71 µM).
With `CN(C)[C@@H]1C(O)=C(C(N)=O)C(=O)[C@@]2(O)C(O)=C3C(=O)c4c(O)cccc4[C@@](C)(O)[C@H]3C[C@@H]12` [tetracycline] the “inhibition of protein synthesis” value [9] was 93.8%, the MIC (E. coli ATCC 25922; ATCC25922) was 1 µg/mL (≈ 2.25 µM) and the MIC (E. coli ATCC 25922; ATCC25922, E. coli ATCC 25922, inoculum 1) was 1 µg/mL (≈ 2.25 µM). The MIC (E. coli ATCC 25922; ATCC25922, E. coli ATCC 25922, inoculum 2) was 1 µg/mL (≈ 2.25 µM).
